Assay results published in patent US9855242B2, “Composition for an immunomodulation” (Eberhard Karls Universität Tübingen Medizinische Fakultät, priority 2013, dated 2018).

Columns and labels:
[1] = system: Human NK cells; assay: CellTiterBlue viability measurement on human NK cells; type: cell-based; details: 48 hours treatment; 6.25, 12.5, 25 or 50 μM of 6-PN or 8-PN, SAHA in low concentrations; versus untreated control; FIG. 2
Description: Human NK cells were treated for 48 hours with 6.25, 12.5, 25 or 50 μM of 6-PN or 8-PN. In the following a viability measurement was carried out (CellTiterBlue Viability Asasy, Promega, Madison, United States of America). The clinically used and established HDACi SAHA (Vorinostat) was used in low concentrations as a reference die for both natural HDACi 6-PN and 8-PN. Shown are the mean values with a standard deviation from three independent experiments with expanded NK cells from three healthy human donors. The horizontal continuous line visualizes the value of the untreated control; a decrease of the fluorescence signal means a reduction of the viability.

[2] = system: Human NK cells; assay: Overall survival of NK cells, trypan blue staining and daily microscopic counting; type: cell-based; details: one time treatment with 6.25, 12.5, 25 or 50 μM; versus untreated control and SAHA treated cells; FIG. 3
Description: Human NK cells were treated with 6.25, 12.5, 25 or 50 μM of 6-PN or 8-PN. Subsequently via a tryptan blue staining and a daily microscopic counting in standardized C chip counter chambers the overall survival of NK cells was measured. As a reference dye again the HDACi SAHA (Vorinostat) was used. Shown is the average value with standard deviation from three independent experiments with expanded NK cells from three healthy human donors. The left arrow visualizes <10% of living cells in the SAHA treatment group; the right arrow visualizes <10% of living cells in the untreated control group.

[3] = system: human hepG2 tumor cells; assay: NK activity on HepG2 tumor cells by realtime cell monitoring (xCELLigence impedance); type: cell-based
Description: In a further experiment the NK activity on human hepG2 tumor cells by means of realtime cell monitoring (Roche Applied Sciences xCELLigence SP-System, Mannheim, Germany) was analyzed. […] The cellular impedance of the adherent tumor cells were measured as parameters for the cell status (cell number, viability, morphology, adhesion). As a positive control for the induction of cell death Triton X-100 was used. Three independent experiments with expanded NK cells from three healthy human donors were carried out. Shown are the average values with standard deviation of one exemplary experiment. The HepG2 tumor cells (target) were incubated at the start of the treatment (24 hours) with 25 μM of 6-PN or 8-PN or with NK cells (effector) (effector to target ratio (E:T)=1.25:1 or 2.5:1) or with the combination of HDACi and NK cells. The normalization happened at the start of the treatment and a decrease of the impedance (normalized cell index) means a reduction of the cell viability or the cell status, respectively.

[4] = system: Hep3B; assay: NK activity on a further tumor cell line by realtime cell monitoring; type: cell-based; details: compared with the HepG2 result
[5] = system: melanoma tumor cells with adherent immune cells; assay: Primary patient material: melanoma tumor cells with adherent immune cells, tumor cell count; type: cell-based, human; details: 12.5 μM or 25 μM; 48, 72, and 96 hours after the start of the treatment; **P<0.01; FIG. 5
[6] = system: NK cells of healthy donors; assay: NK cell viability with automated cell counting device (NC-250); type: cell-based, human; details: one time 12.5 μM or 25 μM; daily over 336 h; FIG. 6
Description: The examination therefore is independent from the experimentator. NK cells of two healthy donors were one time treated with 12.5 μM or 25 μM of 6-PN or 8-PN, respectively, and subsequently two independent points in time on a daily basis examined by means of a nucleo counter NC-250 cell counting device with respect to viability over a time period of 336 h; shown is the average value +/−SD.

[7] = system: PBMCs of healthy donors; assay: PBMC viability with automated cell counting device (NC-250); type: cell-based, human; details: one time 12.5 μM or 25 μM; daily over 336 hours; FIG. 7
Description: The result is shown in the FIG. 7: PBMCs of three healthy donors were one time treated with 12.5 μM or 25 μM of 6-PN or 8-PN and subsequently on a daily basis at independent points in time examined by means of a nucleo counter NC-250 cell counting device with respect to viability over a time period of 336 hours; shown is the average value +/−SD.

[8] = system: PBMCs of healthy donors; assay: Metabolic activity of PBMCs, Promega CellTiter-Blue Assay; type: cell-based, human; details: one time 12.5 μM or 25 μM; after 48 hours; FIG. 8A
Description: (§1) The result is shown in the FIG. 8: A PBMCs of two healthy donors were one time treated with 12.5 μM or 25 μM of 6-PN or 8-PN and examined after 48 hours. B NKL cells were one time treated with 12.5 μM or 25 μM of 6-PN or 8-PN and examined after 48 h. In both immune cell populations and in both treatments an increase of a metabolic activity can be detected; shown is the average value +/−SD.

[9] = system: NK cell line NKL; assay: Metabolic activity of NKL cells, Promega CellTiter-Blue Assay; type: cell-based; details: one time 12.5 μM or 25 μM; after 48 h; FIG. 8B
Description: as §1

[10] = system: estrogen receptors of the uterus of rats; details: cited from earlier work
[11] = system: angiogenesis induced by the basic fibroblast growth factor and the vascular endothelial growth factor; details: three dimensional collagen gel; bFGF and VEGF induced; cited from earlier work
[12] = system: angiogenesis; details: chorioallantois membrane assays; cited from earlier work
[13] = system: MCF7 cells; details: cited from earlier work
[14] = molecular target: P glycoprotein (Homo sapiens, UniProt P08183); details: cited from earlier work
P glycoprotein, sequence (P08183 whole entry): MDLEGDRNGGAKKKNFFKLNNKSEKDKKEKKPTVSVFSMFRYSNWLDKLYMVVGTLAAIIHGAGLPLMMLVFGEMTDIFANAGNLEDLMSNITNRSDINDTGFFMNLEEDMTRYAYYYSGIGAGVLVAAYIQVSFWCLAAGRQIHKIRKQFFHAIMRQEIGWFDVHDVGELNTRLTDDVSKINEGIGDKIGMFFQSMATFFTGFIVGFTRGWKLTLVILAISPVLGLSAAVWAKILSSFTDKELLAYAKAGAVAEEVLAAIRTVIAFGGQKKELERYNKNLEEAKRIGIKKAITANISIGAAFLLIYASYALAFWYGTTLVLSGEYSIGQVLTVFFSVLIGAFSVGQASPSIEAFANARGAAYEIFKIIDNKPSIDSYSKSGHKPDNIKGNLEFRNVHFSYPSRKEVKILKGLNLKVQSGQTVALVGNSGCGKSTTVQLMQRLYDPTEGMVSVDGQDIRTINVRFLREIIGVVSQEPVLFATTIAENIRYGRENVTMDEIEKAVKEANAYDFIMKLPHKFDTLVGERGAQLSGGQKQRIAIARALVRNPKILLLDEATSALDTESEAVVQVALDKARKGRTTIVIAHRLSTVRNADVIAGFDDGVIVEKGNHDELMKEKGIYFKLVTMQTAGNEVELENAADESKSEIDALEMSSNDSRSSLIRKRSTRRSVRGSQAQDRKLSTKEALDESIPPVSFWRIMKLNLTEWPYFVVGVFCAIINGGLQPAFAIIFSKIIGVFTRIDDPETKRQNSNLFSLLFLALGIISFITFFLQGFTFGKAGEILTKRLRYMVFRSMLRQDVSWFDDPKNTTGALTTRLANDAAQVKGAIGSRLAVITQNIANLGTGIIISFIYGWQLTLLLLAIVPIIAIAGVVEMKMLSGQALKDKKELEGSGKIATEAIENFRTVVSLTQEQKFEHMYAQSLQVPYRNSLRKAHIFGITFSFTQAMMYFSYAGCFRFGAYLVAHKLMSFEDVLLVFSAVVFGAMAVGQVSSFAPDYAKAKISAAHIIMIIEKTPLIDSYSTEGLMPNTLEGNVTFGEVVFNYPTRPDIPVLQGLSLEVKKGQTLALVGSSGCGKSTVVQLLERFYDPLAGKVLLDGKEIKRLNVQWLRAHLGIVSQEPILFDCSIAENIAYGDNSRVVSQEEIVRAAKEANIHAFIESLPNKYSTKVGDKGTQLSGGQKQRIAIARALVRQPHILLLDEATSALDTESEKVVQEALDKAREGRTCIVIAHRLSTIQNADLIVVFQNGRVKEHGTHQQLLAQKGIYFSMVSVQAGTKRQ

[15] = molecular target: MRP1 (Homo sapiens, UniProt P33527); details: cited from earlier work
MRP1, sequence (P33527 whole entry): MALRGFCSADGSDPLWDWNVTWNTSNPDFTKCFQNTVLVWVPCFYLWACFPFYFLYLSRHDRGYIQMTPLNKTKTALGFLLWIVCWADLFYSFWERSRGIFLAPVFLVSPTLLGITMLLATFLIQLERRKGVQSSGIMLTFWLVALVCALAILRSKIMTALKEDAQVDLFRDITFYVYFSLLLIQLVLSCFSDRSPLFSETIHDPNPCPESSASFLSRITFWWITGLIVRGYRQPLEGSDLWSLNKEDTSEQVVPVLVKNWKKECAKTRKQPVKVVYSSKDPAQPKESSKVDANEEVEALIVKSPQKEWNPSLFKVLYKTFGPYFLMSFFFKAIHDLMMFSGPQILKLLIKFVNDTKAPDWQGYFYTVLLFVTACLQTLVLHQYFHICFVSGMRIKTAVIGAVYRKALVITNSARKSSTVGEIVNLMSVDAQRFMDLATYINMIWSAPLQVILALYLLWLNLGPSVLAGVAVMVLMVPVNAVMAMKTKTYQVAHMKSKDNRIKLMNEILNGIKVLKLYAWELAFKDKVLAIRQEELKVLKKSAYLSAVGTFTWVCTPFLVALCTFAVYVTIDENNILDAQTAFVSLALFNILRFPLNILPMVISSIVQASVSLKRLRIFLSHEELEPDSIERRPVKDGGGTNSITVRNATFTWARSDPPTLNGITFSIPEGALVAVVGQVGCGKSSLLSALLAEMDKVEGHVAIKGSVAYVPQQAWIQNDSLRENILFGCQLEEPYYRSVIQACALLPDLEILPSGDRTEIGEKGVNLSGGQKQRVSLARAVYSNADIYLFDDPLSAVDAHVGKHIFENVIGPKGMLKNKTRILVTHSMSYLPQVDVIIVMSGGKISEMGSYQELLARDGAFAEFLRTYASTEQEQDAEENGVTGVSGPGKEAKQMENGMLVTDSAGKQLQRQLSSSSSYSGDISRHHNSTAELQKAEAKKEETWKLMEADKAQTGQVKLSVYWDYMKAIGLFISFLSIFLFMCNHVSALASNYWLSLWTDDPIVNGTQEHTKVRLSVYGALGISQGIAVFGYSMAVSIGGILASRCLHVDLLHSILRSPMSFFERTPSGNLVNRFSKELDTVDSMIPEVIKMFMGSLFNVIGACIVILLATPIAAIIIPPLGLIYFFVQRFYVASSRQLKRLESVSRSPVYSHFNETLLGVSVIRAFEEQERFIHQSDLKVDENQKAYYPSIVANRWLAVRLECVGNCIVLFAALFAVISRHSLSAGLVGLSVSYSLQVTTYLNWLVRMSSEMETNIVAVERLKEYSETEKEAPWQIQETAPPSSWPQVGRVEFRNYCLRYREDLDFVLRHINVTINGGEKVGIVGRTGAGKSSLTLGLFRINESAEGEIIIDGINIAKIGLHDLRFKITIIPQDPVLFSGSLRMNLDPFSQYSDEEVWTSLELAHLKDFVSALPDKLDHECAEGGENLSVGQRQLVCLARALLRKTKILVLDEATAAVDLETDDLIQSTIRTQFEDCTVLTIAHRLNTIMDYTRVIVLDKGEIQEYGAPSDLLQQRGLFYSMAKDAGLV

[16] = system: PI (3) K/Akt signaling pathway; details: MCF-7 cells in vitro; cited from earlier work
[17] = system: PC-3; details: in vitro; cited from earlier work
[18] = system: DU145; details: in vitro; cited from earlier work
[19] = system: histone deacetylases (HDACs) of classes I, II, and IV; details: cited from earlier work

Structure (SMILES)	viability of human NK cells [1]	survival rate of the NK cells [2]	activity of the human NK cells over human tumor cells (normalized cell index) ([3]; 25 μM with NK cells, E:T 1.25:1 or 2.5:1, FIG. 4)	sensitivity of HepG2 tumor cells against the compound ([3]; compound without NK cells)	activity of NK cells on further tumor cell line [4]	quantitative evaluation of the tumor cells (melanoma cells) [5]	viability of NK cells of healthy donors [6]	viability of PBMCs of healthy donors [7]	metabolic activity of PBMCs [8]	metabolic activity of NKL cells [9]	binding affinity for estrogen receptors [10]	angiogenesis in vitro [11]	angiogenesis in vivo [12]	apoptosis in MCF7 cells [13]	inhibition of the P glycoprotein [14]	inhibition of MRP1 [15]	activation of the PI (3) K/Akt signaling pathway [16]	antiproliferative effects on PC-3 [17]	antiproliferative effects on DU145 [18]	inhibition of histone deacetylases (HDACs) of classes I, II, and IV [19]
CC(C)=CCc1c(O)cc(O)c2c1OC(c1ccc(O)cc1)CC2=O (stereo not drawn) [8-PN, 5,7-dihydroxy-2-(4-hydroxy-phenyl)-8-(3-methyl-but-2-enyl)-chroman-4-one]	in parts significant increase of the viability	significantly increased	increased activity of the human NK cells	low sensitivity	equivalent results	significant decrease of the melanoma cells	increase/extend the viability	increase/extend viability	increase the metabolic activity	increase the metabolic activity	strong binding affinity	inhibits the angiogenesis	inhibits the angiogenesis	induces furthermore the apoptosis	inhibition	inhibition	directly inhibits the activation	antiproliferative effects	antiproliferative effects	distinct inhibitors
O=C(CCCCCCC(=O)Nc1ccccc1)NO [SAHA, reference compound]	significant decrease of the viability																			
